Laboratory results as given in paper PMC10518257 (Nature Cancer, 2023).
“And” between values parts separate entries of the source, which are not always exact repeats. Identical values can stand only once. Like-named read-outs stand apart in the source and are kept apart here.

Columns and labels:
[1] = target: T1, panel of 255 (vepafestinib) or 256 (all other inhibitors) recombinant kinases (Homo sapiens, UniProt P36888); assay: Kinase selectivity profiling at a single concentration (Carna Biosciences); type: biochemical
T1 construct: purchased Carna Biosciences
T1 sequence (P36888 27-993): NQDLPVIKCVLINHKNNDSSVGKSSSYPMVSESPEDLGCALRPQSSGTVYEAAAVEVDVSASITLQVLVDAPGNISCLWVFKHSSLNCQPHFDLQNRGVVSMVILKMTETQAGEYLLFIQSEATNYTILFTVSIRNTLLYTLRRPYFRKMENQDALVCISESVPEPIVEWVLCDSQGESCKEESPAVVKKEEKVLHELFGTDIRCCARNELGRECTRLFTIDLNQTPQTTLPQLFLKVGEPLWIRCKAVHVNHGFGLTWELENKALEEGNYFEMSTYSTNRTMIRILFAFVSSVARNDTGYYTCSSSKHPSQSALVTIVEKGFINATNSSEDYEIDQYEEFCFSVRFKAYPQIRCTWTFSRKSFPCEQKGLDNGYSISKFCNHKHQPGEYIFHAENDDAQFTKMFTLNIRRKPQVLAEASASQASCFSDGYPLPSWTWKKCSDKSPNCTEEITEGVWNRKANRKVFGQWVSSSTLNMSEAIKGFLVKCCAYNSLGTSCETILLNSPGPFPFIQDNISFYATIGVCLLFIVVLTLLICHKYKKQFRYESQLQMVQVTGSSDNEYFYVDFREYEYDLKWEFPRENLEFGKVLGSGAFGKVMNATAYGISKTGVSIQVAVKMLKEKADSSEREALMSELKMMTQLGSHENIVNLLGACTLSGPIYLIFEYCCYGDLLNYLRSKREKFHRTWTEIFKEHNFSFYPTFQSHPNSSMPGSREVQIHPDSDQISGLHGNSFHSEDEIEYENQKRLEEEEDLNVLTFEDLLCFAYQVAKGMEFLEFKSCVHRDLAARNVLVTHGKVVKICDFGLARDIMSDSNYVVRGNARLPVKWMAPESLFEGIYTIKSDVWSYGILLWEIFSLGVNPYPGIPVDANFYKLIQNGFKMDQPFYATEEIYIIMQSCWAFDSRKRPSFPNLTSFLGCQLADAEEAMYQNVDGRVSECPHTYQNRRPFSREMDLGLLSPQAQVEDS

[2] = target: T2, panel of 255 (vepafestinib) or 256 (all other inhibitors) recombinant kinases (Homo sapiens, UniProt P21802); assay: as above; type: biochemical
T2 construct: purchased Carna Biosciences
T2 sequence (P21802 22-821): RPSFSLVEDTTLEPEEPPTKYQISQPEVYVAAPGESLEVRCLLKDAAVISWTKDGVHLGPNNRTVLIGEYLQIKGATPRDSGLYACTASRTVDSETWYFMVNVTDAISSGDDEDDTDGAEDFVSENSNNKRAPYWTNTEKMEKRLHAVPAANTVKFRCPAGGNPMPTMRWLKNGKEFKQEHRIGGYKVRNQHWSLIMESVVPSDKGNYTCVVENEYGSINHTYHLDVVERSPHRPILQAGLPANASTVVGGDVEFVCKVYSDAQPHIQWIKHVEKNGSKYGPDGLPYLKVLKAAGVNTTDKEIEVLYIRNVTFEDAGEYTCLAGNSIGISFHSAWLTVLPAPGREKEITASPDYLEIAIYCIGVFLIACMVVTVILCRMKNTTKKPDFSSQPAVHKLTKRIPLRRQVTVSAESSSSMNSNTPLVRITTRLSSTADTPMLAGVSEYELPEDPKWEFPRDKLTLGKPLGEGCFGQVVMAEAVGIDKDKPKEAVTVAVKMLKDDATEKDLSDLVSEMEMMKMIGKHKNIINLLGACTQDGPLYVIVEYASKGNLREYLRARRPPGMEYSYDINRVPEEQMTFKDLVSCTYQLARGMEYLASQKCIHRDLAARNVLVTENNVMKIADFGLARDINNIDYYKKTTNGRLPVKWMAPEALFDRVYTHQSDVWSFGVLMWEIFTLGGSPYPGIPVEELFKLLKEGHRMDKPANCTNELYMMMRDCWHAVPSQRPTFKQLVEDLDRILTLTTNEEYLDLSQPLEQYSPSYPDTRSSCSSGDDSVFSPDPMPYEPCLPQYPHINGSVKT

[3] = target: T3, panel of 255 (vepafestinib) or 256 (all other inhibitors) recombinant kinases (Homo sapiens, UniProt P09619); assay: as above; type: biochemical
T3 construct: purchased Carna Biosciences
T3 sequence (P09619 33-1106): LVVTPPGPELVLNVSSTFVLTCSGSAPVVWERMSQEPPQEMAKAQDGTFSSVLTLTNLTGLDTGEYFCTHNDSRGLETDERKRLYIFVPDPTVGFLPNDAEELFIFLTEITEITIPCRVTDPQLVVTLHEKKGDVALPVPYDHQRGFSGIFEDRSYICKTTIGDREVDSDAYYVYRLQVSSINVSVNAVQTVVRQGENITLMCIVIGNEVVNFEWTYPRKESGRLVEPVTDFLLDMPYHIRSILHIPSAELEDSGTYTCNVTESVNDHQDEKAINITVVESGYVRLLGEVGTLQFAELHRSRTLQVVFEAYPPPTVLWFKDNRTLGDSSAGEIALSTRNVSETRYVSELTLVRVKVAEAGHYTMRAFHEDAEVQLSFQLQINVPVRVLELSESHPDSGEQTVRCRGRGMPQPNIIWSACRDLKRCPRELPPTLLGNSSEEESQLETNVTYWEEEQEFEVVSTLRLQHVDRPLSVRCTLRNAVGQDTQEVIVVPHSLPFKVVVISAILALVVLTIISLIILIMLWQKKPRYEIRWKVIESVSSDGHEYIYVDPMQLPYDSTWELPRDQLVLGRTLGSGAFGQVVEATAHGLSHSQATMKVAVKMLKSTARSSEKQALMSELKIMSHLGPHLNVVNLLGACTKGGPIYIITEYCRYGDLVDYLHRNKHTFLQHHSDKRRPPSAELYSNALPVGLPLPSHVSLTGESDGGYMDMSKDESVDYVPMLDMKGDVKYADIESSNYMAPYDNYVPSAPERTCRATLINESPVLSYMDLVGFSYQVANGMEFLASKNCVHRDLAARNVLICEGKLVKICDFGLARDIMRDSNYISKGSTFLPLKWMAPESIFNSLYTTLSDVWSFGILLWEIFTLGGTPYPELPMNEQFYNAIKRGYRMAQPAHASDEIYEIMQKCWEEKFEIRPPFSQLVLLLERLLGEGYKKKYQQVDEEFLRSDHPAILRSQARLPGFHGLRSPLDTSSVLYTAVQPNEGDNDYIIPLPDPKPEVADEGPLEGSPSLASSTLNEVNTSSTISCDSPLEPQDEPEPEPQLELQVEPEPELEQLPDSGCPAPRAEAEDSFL

[4] = target: T4, panel of 255 (vepafestinib) or 256 (all other inhibitors) recombinant kinases (Homo sapiens, UniProt P35968); assay: as above; type: biochemical; conditions: 17 nM
T4 construct: purchased Carna Biosciences

[5] = target: T5, panel of 255 (vepafestinib) or 256 (all other inhibitors) recombinant kinases (Homo sapiens, UniProt P22607); assay: as above; type: biochemical
T5 construct: purchased Carna Biosciences

[6] = target: T6, panel of 255 (vepafestinib) or 256 (all other inhibitors) recombinant kinases (Homo sapiens, UniProt P11362); assay: as above; type: biochemical
T6 construct: purchased Carna Biosciences
T6 sequence (P11362 22-822): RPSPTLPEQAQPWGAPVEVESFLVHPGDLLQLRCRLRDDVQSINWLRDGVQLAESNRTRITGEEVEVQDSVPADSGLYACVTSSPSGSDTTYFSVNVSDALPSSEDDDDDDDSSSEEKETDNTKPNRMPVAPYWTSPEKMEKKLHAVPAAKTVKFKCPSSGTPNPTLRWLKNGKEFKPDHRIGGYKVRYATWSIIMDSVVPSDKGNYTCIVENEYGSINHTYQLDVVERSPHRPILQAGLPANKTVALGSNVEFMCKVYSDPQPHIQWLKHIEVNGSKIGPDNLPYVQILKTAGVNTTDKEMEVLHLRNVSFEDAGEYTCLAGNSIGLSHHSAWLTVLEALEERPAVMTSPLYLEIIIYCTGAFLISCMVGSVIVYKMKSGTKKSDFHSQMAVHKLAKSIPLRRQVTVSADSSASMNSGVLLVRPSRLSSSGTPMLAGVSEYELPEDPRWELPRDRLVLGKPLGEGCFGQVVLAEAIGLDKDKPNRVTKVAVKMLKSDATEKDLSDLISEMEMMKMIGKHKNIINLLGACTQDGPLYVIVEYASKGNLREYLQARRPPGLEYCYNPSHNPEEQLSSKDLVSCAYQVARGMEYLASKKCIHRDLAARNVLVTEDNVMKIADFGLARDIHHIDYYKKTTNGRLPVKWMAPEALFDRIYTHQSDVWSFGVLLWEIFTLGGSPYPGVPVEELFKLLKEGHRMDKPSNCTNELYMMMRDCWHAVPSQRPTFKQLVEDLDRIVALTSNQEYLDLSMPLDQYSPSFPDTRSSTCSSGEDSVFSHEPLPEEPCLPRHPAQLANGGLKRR

[7] = target: T7, panel of 255 (vepafestinib) or 256 (all other inhibitors) recombinant kinases (Homo sapiens, UniProt P07949); assay: as above; type: biochemical
T7 construct: purchased Carna Biosciences
T7 sequence (P07949 29-1114): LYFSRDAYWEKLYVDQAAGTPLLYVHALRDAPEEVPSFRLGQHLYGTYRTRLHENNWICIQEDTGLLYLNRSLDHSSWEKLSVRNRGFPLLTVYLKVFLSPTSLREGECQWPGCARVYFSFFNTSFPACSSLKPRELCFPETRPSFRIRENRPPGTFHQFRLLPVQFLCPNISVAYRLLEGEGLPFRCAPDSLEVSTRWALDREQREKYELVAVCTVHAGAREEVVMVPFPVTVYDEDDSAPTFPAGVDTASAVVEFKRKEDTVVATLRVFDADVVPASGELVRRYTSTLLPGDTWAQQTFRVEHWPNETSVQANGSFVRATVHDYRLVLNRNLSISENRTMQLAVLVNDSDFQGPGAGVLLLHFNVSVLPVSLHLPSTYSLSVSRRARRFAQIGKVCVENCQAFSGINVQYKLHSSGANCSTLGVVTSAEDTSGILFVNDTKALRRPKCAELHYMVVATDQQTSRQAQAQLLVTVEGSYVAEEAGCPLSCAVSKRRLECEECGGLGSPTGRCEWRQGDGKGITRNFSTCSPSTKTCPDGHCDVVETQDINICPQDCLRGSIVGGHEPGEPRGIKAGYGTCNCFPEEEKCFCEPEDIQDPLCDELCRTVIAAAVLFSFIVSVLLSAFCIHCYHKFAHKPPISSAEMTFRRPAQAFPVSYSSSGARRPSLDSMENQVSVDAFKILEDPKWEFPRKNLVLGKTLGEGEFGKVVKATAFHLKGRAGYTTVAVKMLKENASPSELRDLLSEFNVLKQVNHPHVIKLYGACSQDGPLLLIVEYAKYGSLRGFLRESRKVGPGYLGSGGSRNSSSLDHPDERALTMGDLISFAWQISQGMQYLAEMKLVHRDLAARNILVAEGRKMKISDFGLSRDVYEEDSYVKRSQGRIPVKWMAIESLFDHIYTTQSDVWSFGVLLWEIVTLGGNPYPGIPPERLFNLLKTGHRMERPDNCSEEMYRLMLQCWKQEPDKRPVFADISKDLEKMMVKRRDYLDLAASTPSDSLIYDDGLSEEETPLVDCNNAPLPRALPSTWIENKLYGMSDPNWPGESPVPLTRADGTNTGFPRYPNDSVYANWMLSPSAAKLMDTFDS

[8] = target: T8, panel of 255 (vepafestinib) or 256 (all other inhibitors) recombinant kinases (Homo sapiens, UniProt Q08345); assay: as above; type: biochemical
T8 construct: purchased Carna Biosciences

Ba/F3-CCDC6::RET = assay: Growth inhibition assay in Ba/F3 cells (CellTiter-Glo, 72 h); type: cell-based
[9] = Transcellular transport study, apparent permeability; conditions: pig, LLC-PK1
[10] = tested on: Ba/F3 cells expressing KIF5B–RET^WT; assay: Growth inhibition assay in Ba/F3 cells (CellTiter-Glo, 72 h); type: cell-based
[11] = tested on: Ba/F3 cells expressing KIF5B–RET^G810S; assay: as above; type: cell-based; conditions: replicate Sets 1-3
[12] = target: T9, panel of 255 (vepafestinib) or 256 (all other inhibitors) recombinant kinases (Homo sapiens, UniProt O14757); assay: Kinase selectivity profiling at a single concentration (Carna Biosciences); type: biochemical; conditions: 22 nM
T9 construct: purchased Carna Biosciences

[13] = target: T10, panel of 255 (vepafestinib) or 256 (all other inhibitors) recombinant kinases (Homo sapiens, UniProt Q06418); assay: as above; type: biochemical; conditions: 22 nM
T10 construct: purchased Carna Biosciences

[14] = target: T11, panel of 255 (vepafestinib) or 256 (all other inhibitors) recombinant kinases (Homo sapiens, UniProt Q15375); assay: as above; type: biochemical; conditions: 22 nM
T11 construct: purchased Carna Biosciences

ECLC5 xenografts = assay: Subcutaneous xenograft efficacy study; conditions: 100 mg/kg QD
LUAD-0057AS1 PDX = assay: PDX efficacy study; conditions: 50 mg/kg QD
[15] = BaF3/CCDC6-RET, 72 h, read-out: GI50 value (Mean ± SD), Ba/F3-CCDC6::RET, CellTiter-Glo, 72 h
[16] = read-out: GI50 values, Ba/F3-CCDC6::RET, individual sets (replicate experiments)
[17] = Mus musculus, BaF3, Ba/3-KIF5B-RET, replicate sets
[18] = end of study, individual tumors

CO[C@]1(C(=O)N[C@@H](C)c2ccc(-n3cc(F)cn3)nc2)CC[C@H](c2nc(C)cc(Nc3cc(C)[nH]n3)n2)CC1 [Pralsetinib]
% Inhibiton FLT3 ([1]; 17 nM): 73.3%
% Inhibiton FGFR2 ([2]; 17 nM): 29.4%
% Inhibiton PDGFRβ ([3]; 17 nM): 69.8%
% Inhibiton KDR [4]: 27.4%
% Inhibiton FGFR3 ([5]; 17 nM): 34.3%
% Inhibiton FGFR1 ([6]; 17 nM): 57%
% Inhibiton RET ([7]; 17 nM): 96.7%
% Inhibiton DDR1 ([8]; 17 nM): 72.1%
GI50 (Ba/F3-CCDC6::RET; [15]): 19.9 ± 10.6 nM
GI50 (Ba/F3-CCDC6::RET; [16]): 11.8 nM and 31.9 nM and 15.9 nM
Papp at 3 h, 1 μM [9]: 14.3 ×10⁻⁶ cm/s
GI50 ([10]; Ba/3-KIF5B-RET, replicate sets): 7.33 nM and 4.09 nM
GI50 [10, 17]: 8.11 nM
GI50 ([11]; Ba/3-KIF5B-RET-G810S): 26.2 nM and 86 nM and 39.5 nM

COc1ccc(CN2C3CC2CN(c2ccc(-c4cc(OCC(C)(C)O)cn5ncc(C#N)c45)cn2)C3)cn1 [Selpercatinib]
% Inhibiton CHK1 [12]: 15.2%
% Inhibiton FLT3 ([1]; 22 nM): 52.5%
% Inhibiton FGFR2 ([2]; 22 nM): 44.8%
% Inhibiton PDGFRβ ([3]; 22 nM): 21.7%
% Inhibiton FGFR3 ([5]; 22 nM): 35.9%
% Inhibiton FGFR1 ([6]; 22 nM): 21.4%
% Inhibiton RET ([7]; 22 nM): 98.6%
% Inhibiton DDR1 ([8]; 22 nM): 18%
% Inhibiton TYRO3 [13]: 38.2%
% Inhibiton EPHA7 [14]: 26.3%
GI50 (Ba/F3-CCDC6::RET; [15]): 21.4 ± 7.5 nM
GI50 (Ba/F3-CCDC6::RET; [16]): 13 nM and 27.4 nM
Papp at 3 h, 1 μM [9]: 17 ×10⁻⁶ cm/s
GI50 ([10]; Ba/3-KIF5B-RET, replicate sets): 6.35 nM and 7.55 nM
GI50 ([10]; Mus musculus, BaF3, 72 h, read-out: GI50 value (Mean ± SD), Ba/F3-KIF5B::RET, CellTiter-Glo, 72 h): 6.68 ± 0.76 nM
GI50 [10, 17]: 6.13 nM
GI50 ([11]; Ba/3-KIF5B-RET-G810S): 182 nM and 173 nM
GI50 ([11]; Mus musculus, BaF3, Ba/3-KIF5B-RET-G810S): 143 nM

COc1cc2c(Nc3ccc(Br)cc3F)ncnc2cc1OCC1CCN(C)CC1 [Vandetanib]
Area Under Curve of tumor growth, Mean (ECLC5 xenografts): -1273
Tumor volume (ECLC5 xenografts; day 0, individual animals): 83.83 mm3 (2×) and 88.56 mm3 and 87.03 mm3
Tumor volume (ECLC5 xenografts; day 4, individual animals): 55.4 mm3 (2×) and 45.5 mm3 and 53.01 mm3 and 50.68 mm3
Tumor volume (ECLC5 xenografts; day 7, individual animals): 42.25 mm3 and 37.7 mm3 and 44.53 mm3 and 41.37 mm3 and 39.37 mm3
Tumor volume (ECLC5 xenografts; day 11, individual animals): 38.54 mm3 and 37.7 mm3 and 44.53 mm3 and 33.69 mm3 and 31.89 mm3
Tumor volume (ECLC5 xenografts; day 14, individual animals): 36.02 mm3 and 36.86 mm3 and 35.19 mm3 and 28.86 mm3 and 23.59 mm3
Tumor volume (ECLC5 xenografts; day 19, individual animals): 34.35 mm3 and 31 mm3 and 35.19 mm3 and 28.86 mm3 and 18.85 mm3
Tumor volume (ECLC5 xenografts; day 22, individual animals): 0 mm3 (4×) and 29.39 mm3
Tumor volume (ECLC5 xenografts; day 25, individual animals): 0 mm3
Change in Tumor Volume (ECLC5 xenografts; [18]): -100%
Area Under Curve of tumor growth, Mean (LUAD-0057AS1 PDX): -2007
Tumor volume (LUAD-0057AS1 PDX; day 0, individual animals): 143.69 mm3 (3×) and 139.24 mm3 (2×) and 136.86 mm3 and 132.84 mm3 and 124.41 mm3
Tumor volume (LUAD-0057AS1 PDX; day 3, individual animals): 79.85 mm3 and 78.99 mm3 (2×) and 80.35 mm3 and 89.72 mm3 and 82.12 mm3 and 83.53 mm3 (2×)
Tumor volume (LUAD-0057AS1 PDX; day 7, individual animals): 65.45 mm3 (5×) and 66.76 mm3 (2×) and 69.46 mm3
Tumor volume (LUAD-0057AS1 PDX; day 10, individual animals): 52.07 mm3 (2×) and 58.99 mm3 and 57.83 mm3 (3×) and 56.67 mm3 and 49.83 mm3
Tumor volume (LUAD-0057AS1 PDX; day 14, individual animals): 52.07 mm3 (2×) and 55.52 mm3 and 57.83 mm3 (2×) and 56.67 mm3 and 49.83 mm3
Tumor volume (LUAD-0057AS1 PDX; day 19, individual animals): 0 mm3
Tumor volume (LUAD-0057AS1 PDX; day 23, individual animals): 0 mm3
Change in Tumor Volume (LUAD-0057AS1 PDX; [18]): -100%
